Key:
[1] = test system: CEM-DNR; experiment: Cytotoxicity against human CEM-DNR cells assessed as reduction in cell viability incubated for 72 hrs by MTS assay; assay type: functional, cell-based
[2] = test system: A549; experiment: Cytotoxicity against human A549 cells assessed as reduction in cell viability incubated for 72 hrs by MTS assay; assay type: functional, cell-based; settings: A549, 72 h
[3] = test system: U2OS; experiment: Cytotoxicity against human U2OS cells assessed as reduction in cell viability incubated for 72 hrs by MTS assay; assay type: functional, cell-based
[4] = Cytotoxicity against human BJ cells assessed as reduction in cell viability incubated for 72 hrs by MTS assay; assay type: toxicity, cell-based
[5] = test system: CCRF-CEM; experiment: Cytotoxicity against human CCRF-CEM cells assessed as reduction in cell viability incubated for 72 hrs by MTS assay; assay type: functional, cell-based
[6] = test system: HCT 116 TP53(-/-); experiment: Cytotoxicity against human HCT116-p53-null cells assessed as reduction in cell viability incubated for 72 hrs by MTS assay; assay type: functional, cell-based
[7] = Cytotoxicity against human MRC5 cells assessed as reduction in cell viability incubated for 72 hrs by MTS assay; assay type: toxicity, cell-based
[8] = test system: K562; experiment: Cytotoxicity against human K562 cells assessed as reduction in cell viability incubated for 72 hrs by MTS assay; assay type: functional, cell-based; settings: K562, 72 h
[9] = test system: HCT-116; experiment: Cytotoxicity against human HCT-116 cells assessed as reduction in cell viability incubated for 72 hrs by MTS assay; assay type: functional, cell-based; settings: HCT-116, 72 h
[10] = Cytotoxicity against human K562-Tax cells assessed as reduction in cell viability incubated for 72 hrs by MTS assay; assay type: functional, cell-based

SMILES	IC50 [1]	IC50 [2]	IC50 [3]	IC50 at 72 h [4]	IC50 [5]	IC50 [6]	IC50 at 72 h [7]	IC50 [8]	IC50 [9]	IC50 [10]
C[C@H]1[C@H](C)CC[C@]2(C(=O)O)CC[C@]3(C)C(=CC[C@@H]4[C@@]5(C)Cc6c(C(F)(F)F)cc(=O)oc6C(C)(C)[C@@H]5CC[C@]43C)[C@H]12	19.5 µM	17 µM	23 µM	> 50 µM	6.3 µM	27 µM	> 50 µM	23 µM	25 µM	21 µM
CC(C)[C@@H]1CC[C@]2(C(=O)O)CC[C@]3(C)[C@H](CC[C@@H]4[C@@]5(C)CC(C(=O)C(F)(F)F)C(=O)C(C)(C)[C@@H]5CC[C@]43C)[C@@H]12 (some centres undefined)	–	11 µM	25 µM	43 µM	8.6 µM	26 µM	46 µM	29 µM	23 µM	–
C[C@H]1[C@H](C)CC[C@]2(C(=O)O)CC[C@]3(C)C(=CC[C@@H]4[C@@]5(C)Cc6c(C(F)(F)F)cc7c(c6C(C)(C)[C@@H]5CC[C@]43C)C(=O)N(c3ccccc3)C7=O)[C@H]12	> 50 µM	> 50 µM	> 50 µM	> 50 µM	> 50 µM	> 50 µM	> 50 µM	> 50 µM	> 50 µM	> 50 µM
C=C(C)[C@@H]1CC[C@]2(C(=O)O)CC[C@]3(C)[C@H](CC[C@@H]4[C@@]5(C)Cc6c(C(F)(F)F)cc7c(c6C(C)(C)[C@@H]5CC[C@]43C)C(=O)N(c3ccccc3)C7=O)[C@@H]12	> 50 µM	> 50 µM	> 50 µM	> 50 µM	> 50 µM	> 50 µM	> 50 µM	> 50 µM	> 50 µM	> 50 µM
CC(C)[C@@H]1CC[C@]2(C(=O)O)CC[C@]3(C)[C@H](CC[C@@H]4[C@@]5(C)Cc6c(C(F)(F)F)cc7c(c6C(C)(C)[C@@H]5CC[C@]43C)C(=O)N(c3ccccc3)C7=O)[C@@H]12	> 50 µM	> 50 µM	> 50 µM	> 50 µM	> 50 µM	> 50 µM	> 50 µM	> 50 µM	> 50 µM	> 50 µM
COC(=O)c1cc(C(F)(F)F)c2c(c1C(=O)OC)C(C)(C)[C@@H]1CC[C@]3(C)[C@H](CC[C@@H]4[C@H]5[C@H](C(C)C)CC[C@]5(C(=O)O)CC[C@]43C)[C@@]1(C)C2	> 50 µM	> 50 µM	11 µM	> 50 µM	5.3 µM	> 50 µM	> 50 µM	> 50 µM	> 50 µM	> 50 µM
COC(=O)c1cc(C(F)(F)F)c2c(c1C(=O)OC)C(C)(C)[C@@H]1CC[C@]3(C)[C@H](CC=C4[C@@H]5[C@@H](C)[C@H](C)CC[C@]5(C(=O)O)CC[C@]43C)[C@@]1(C)C2	> 50 µM	17 µM	24 µM	> 50 µM	5.1 µM	26 µM	> 50 µM	28 µM	38 µM	> 50 µM
C[C@H]1[C@H](C)CC[C@]2(C(=O)O)CC[C@]3(C)C(=CC[C@@H]4[C@@]5(C)CC(C(=O)C(F)(F)F)C(=O)C(C)(C)[C@@H]5CC[C@]43C)[C@H]12 (some centres undefined)	–	23 µM	> 50 µM	> 50 µM	8.3 µM	43 µM	> 50 µM	23 µM	35 µM	–
C=C(C)[C@@H]1CC[C@]2(C(=O)O)CC[C@]3(C)[C@H](CC[C@@H]4[C@@]5(C)CC(C(=O)C(F)(F)F)C(=O)C(C)(C)[C@@H]5CC[C@]43C)[C@@H]12 (some centres undefined)	–	12 µM	30 µM	> 50 µM	7.3 µM	30 µM	> 50 µM	13 µM	24 µM	–
